Data reported in ChEMBL document CHEMBL1201862, “PubChem BioAssay data set” (2004).
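Following 48 hours of exposure in 96-well plates, responses at five concentrations were used to interpolate endpoints linearly. Abbreviation: GI50, concentration required for 50% inhibition of growth.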 The source made the active and inactive calls. No stated cut-off is given here; in the data, active = GI50 up to about 1.1 µM and inactive = higher.

Assays:
Experiment in all cases: growth of human tumour cells (NCI), 48 h
K562 = tested on: K562
KM12 = tested on: KM12
SNB-75 = tested on: SNB-75
SF-539 = tested on: SF-539
ACHN = tested on: ACHN
SW-620 = tested on: SW-620
OVCAR-5 = tested on: OVCAR-5
SK-MEL-5 = tested on: SK-MEL-5
SF-268 = tested on: SF-268
MOLT-4 = tested on: MOLT-4
SK-MEL-2 = tested on: SK-MEL-2
HOP-92 = tested on: HOP-92
SNB-19 = tested on: SNB-19
OVCAR-8 = tested on: OVCAR-8
NCI-H460 = tested on: NCI-H460
OVCAR-3 = tested on: OVCAR-3
NCI-H522 = tested on: NCI-H522
SK-MEL-28 = tested on: SK-MEL-28
NCI-H226 = tested on: NCI-H226
LOX IMVI = tested on: LOX IMVI

## CCn1c(=O)nc2n(-c3ccccc3)c3ccccc3nc-2c1=O
K562
  GI50: 17.9 µM (inactive)
KM12
  GI50: 31.3 µM (inactive)
SNB-75
  GI50: 82.8 µM (inactive)
SF-539
  GI50: 14.2 µM (inactive)
ACHN
  GI50: 4.21 µM (inactive)
SW-620
  GI50: 14.4 µM (inactive)
OVCAR-5
  GI50: 29.3 µM (inactive)
SK-MEL-5
  GI50: 10.4 µM (inactive)
SF-268
  GI50: 17.3 µM (inactive)
MOLT-4
  GI50: 17.3 µM (inactive)
SK-MEL-2
  GI50: 25 µM (inactive)
HOP-92
  GI50: 18.3 µM (inactive)
SNB-19
  GI50: 23 µM (inactive)
OVCAR-8
  GI50: 19.5 µM (inactive)
NCI-H460
  GI50: 13.3 µM (inactive)
OVCAR-3
  GI50: 3.96 µM (inactive)
NCI-H522
  GI50: 26.9 µM (inactive)
SK-MEL-28
  GI50: 32.8 µM (inactive)
NCI-H226
  GI50: 20 µM (inactive)

## O=C1C=CC=C/C1=C1/SC(c2ccccc2)=C(O)N1c1ccccc1
KM12
  GI50: > 100 µM (inactive)
SNB-75
  GI50: > 100 µM (inactive)
SF-539
  GI50: > 100 µM (inactive)
ACHN
  GI50: > 100 µM (inactive)
SW-620
  GI50: > 100 µM (inactive)
OVCAR-5
  GI50: > 100 µM (inactive)
SK-MEL-5
  GI50: > 100 µM (inactive)
SF-268
  GI50: > 100 µM (inactive)
SK-MEL-2
  GI50: > 100 µM (inactive)
HOP-92
  GI50: > 100 µM (inactive)
SNB-19
  GI50: > 100 µM (inactive)
OVCAR-8
  GI50: > 100 µM (inactive)
OVCAR-3
  GI50: > 100 µM (inactive)
NCI-H522
  GI50: > 100 µM (inactive)
SK-MEL-28
  GI50: > 100 µM (inactive)
NCI-H226
  GI50: > 100 µM (inactive)

## CC(C)(C)OC(=O)N1C2CCCC23O[C@@H]1c1cc2c(cc1C3=O)OCO2 (stereo not given in full)
K562
  GI50: 6.5 µM (inactive)
KM12
  GI50: 14.4 µM (inactive)
SNB-75
  GI50: 12.6 µM (inactive)
SF-539
  GI50: 19.5 µM (inactive)
ACHN
  GI50: 54.1 µM (inactive)
SW-620
  GI50: 22.4 µM (inactive)
OVCAR-5
  GI50: > 100 µM (inactive)
SK-MEL-5
  GI50: 4.41 µM (inactive)
SF-268
  GI50: 41.8 µM (inactive)
MOLT-4
  GI50: 24.6 µM (inactive)
SK-MEL-2
  GI50: 53.3 µM (inactive)
HOP-92
  GI50: 28.6 µM (inactive)
SNB-19
  GI50: 39.2 µM (inactive)
OVCAR-8
  GI50: 61.1 µM (inactive)
NCI-H460
  GI50: 34 µM (inactive)
OVCAR-3
  GI50: 8.81 µM (inactive)
NCI-H522
  GI50: 8.89 µM (inactive)
SK-MEL-28
  GI50: 67.3 µM (inactive)
NCI-H226
  GI50: 81.1 µM (inactive)

## Cc1ccc(NC(=S)NNC(=O)c2cc(-c3ccccc3)nc3ccccc23)cc1C
K562
  GI50: 33 µM (inactive)
KM12
  GI50: 27.4 µM (inactive)
SNB-75
  GI50: 16.3 µM (inactive)
SF-539
  GI50: 21.2 µM (inactive)
ACHN
  GI50: 25.2 µM (inactive)
SW-620
  GI50: 31.5 µM (inactive)
OVCAR-5
  GI50: 26.8 µM (inactive)
SK-MEL-5
  GI50: 18 µM (inactive)
SF-268
  GI50: 29.4 µM (inactive)
MOLT-4
  GI50: 20.8 µM (inactive)
SK-MEL-2
  GI50: 18.6 µM (inactive)
HOP-92
  GI50: 18.6 µM (inactive)
SNB-19
  GI50: 32 µM (inactive)
OVCAR-8
  GI50: 20.8 µM (inactive)
NCI-H460
  GI50: 19.5 µM (inactive)
NCI-H522
  GI50: 22.5 µM (inactive)
SK-MEL-28
  GI50: 25.8 µM (inactive)
NCI-H226
  GI50: 34.8 µM (inactive)

## O=C1CC(CC(OCc2ccccc2)C(COCc2ccccc2)OCc2ccccc2)CC(=O)N1 (stereo not given)
K562
  GI50: 33.7 µM (inactive)
KM12
  GI50: 37.9 µM (inactive)
SNB-75
  GI50: 52.7 µM (inactive)
SF-539
  GI50: 60.3 µM (inactive)
ACHN
  GI50: 30.3 µM (inactive)
SW-620
  GI50: 50.6 µM (inactive)
OVCAR-5
  GI50: 44.2 µM (inactive)
LOX IMVI
  GI50: 34.3 µM (inactive)
SK-MEL-5
  GI50: 15.4 µM (inactive)
SF-268
  GI50: 58.1 µM (inactive)
MOLT-4
  GI50: 24.3 µM (inactive)
HOP-92
  GI50: 39.2 µM (inactive)
OVCAR-8
  GI50: 31.9 µM (inactive)
NCI-H460
  GI50: 32.4 µM (inactive)
OVCAR-3
  GI50: 37.4 µM (inactive)
NCI-H522
  GI50: 23.7 µM (inactive)
SK-MEL-28
  GI50: 63.4 µM (inactive)
NCI-H226
  GI50: 44.1 µM (inactive)

## O=C1CN2C(Cl)(Cl)C2(c2ccccc2)c2cc(Cl)ccc2N1CC1CC1 (stereo not given)
K562
  GI50: 31.5 µM (inactive)
KM12
  GI50: 16.6 µM (inactive)
SNB-75
  GI50: 25.2 µM (inactive)
ACHN
  GI50: 23.8 µM (inactive)
SW-620
  GI50: 29.6 µM (inactive)
OVCAR-5
  GI50: 37.4 µM (inactive)
LOX IMVI
  GI50: 17.3 µM (inactive)
SK-MEL-5
  GI50: 20.2 µM (inactive)
SF-268
  GI50: 29.3 µM (inactive)
MOLT-4
  GI50: 24 µM (inactive)
SK-MEL-2
  GI50: 17.3 µM (inactive)
HOP-92
  GI50: 12.3 µM (inactive)
OVCAR-8
  GI50: 14.6 µM (inactive)
NCI-H460
  GI50: 16.3 µM (inactive)
OVCAR-3
  GI50: 19.6 µM (inactive)
NCI-H522
  GI50: 17.2 µM (inactive)
SK-MEL-28
  GI50: 17.3 µM (inactive)
NCI-H226
  GI50: 21.3 µM (inactive)

## CC(C)(C)NCC(O)c1ccc(O)c(CO)n1 (stereo not given)
KM12
  GI50: > 100 µM (inactive)
SNB-75
  GI50: > 100 µM (inactive)
SF-539
  GI50: > 100 µM (inactive)
ACHN
  GI50: > 100 µM (inactive)
SW-620
  GI50: > 100 µM (inactive)
OVCAR-5
  GI50: > 100 µM (inactive)
LOX IMVI
  GI50: > 100 µM (inactive)
SK-MEL-5
  GI50: > 100 µM (inactive)
SF-268
  GI50: > 100 µM (inactive)
MOLT-4
  GI50: > 100 µM (inactive)
SK-MEL-2
  GI50: > 100 µM (inactive)
HOP-92
  GI50: > 100 µM (inactive)
SNB-19
  GI50: > 100 µM (inactive)
OVCAR-8
  GI50: > 100 µM (inactive)
NCI-H460
  GI50: > 100 µM (inactive)
OVCAR-3
  GI50: > 100 µM (inactive)
NCI-H522
  GI50: > 100 µM (inactive)
SK-MEL-28
  GI50: > 100 µM (inactive)
NCI-H226
  GI50: > 100 µM (inactive)

## COc1ccc(C(CC(=O)c2ccc(O)cc2)C(C(=O)c2ccc(O)cc2)C(c2ccc(OC)cc2)C2C(=O)NC(=S)NC2=O)cc1 (stereo not given)
K562
  GI50: 30.5 µM (inactive)
KM12
  GI50: 16.6 µM (inactive)
SNB-75
  GI50: 25.8 µM (inactive)
ACHN
  GI50: 19.7 µM (inactive)
SW-620
  GI50: 23.1 µM (inactive)
OVCAR-5
  GI50: 20.7 µM (inactive)
LOX IMVI
  GI50: 17.9 µM (inactive)
SK-MEL-5
  GI50: 21.5 µM (inactive)
SF-268
  GI50: 15.7 µM (inactive)
MOLT-4
  GI50: 37.7 µM (inactive)
SK-MEL-2
  GI50: 29.8 µM (inactive)
HOP-92
  GI50: 46.9 µM (inactive)
SNB-19
  GI50: 21.8 µM (inactive)
OVCAR-8
  GI50: 24.8 µM (inactive)
NCI-H460
  GI50: 18.1 µM (inactive)
NCI-H522
  GI50: 14.9 µM (inactive)
SK-MEL-28
  GI50: 16.2 µM (inactive)
NCI-H226
  GI50: 18.7 µM (inactive)

## COc1cc2ccc(CC(N)=O)cc2cc1OC
K562
  GI50: > 100 µM (inactive)
KM12
  GI50: > 100 µM (inactive)
SNB-75
  GI50: 40.3 µM (inactive)
SF-539
  GI50: > 100 µM (inactive)
SW-620
  GI50: > 100 µM (inactive)
OVCAR-5
  GI50: > 100 µM (inactive)
LOX IMVI
  GI50: > 100 µM (inactive)
SK-MEL-5
  GI50: > 100 µM (inactive)
SF-268
  GI50: > 100 µM (inactive)
MOLT-4
  GI50: > 100 µM (inactive)
SK-MEL-2
  GI50: > 100 µM (inactive)
HOP-92
  GI50: > 100 µM (inactive)
SNB-19
  GI50: > 100 µM (inactive)
OVCAR-8
  GI50: > 100 µM (inactive)
OVCAR-3
  GI50: > 100 µM (inactive)
NCI-H522
  GI50: > 100 µM (inactive)
SK-MEL-28
  GI50: > 100 µM (inactive)
NCI-H226
  GI50: > 100 µM (inactive)

## CCC1(OC(=O)CN)C(=O)OCc2c1cc1n(c2=O)Cc2cc3ccccc3nc2-1 (stereo not given)
K562
  GI50: 0.0334 µM (active)
KM12
  GI50: 0.128 µM (active)
SNB-75
  GI50: 0.0213 µM (active)
SF-539
  GI50: 0.01 µM (active)
ACHN
  GI50: 0.01 µM (active)
SW-620
  GI50: 0.067 µM (active)
OVCAR-5
  GI50: 0.0457 µM (active)
LOX IMVI
  GI50: < 0.0102 µM (active)
SF-268
  GI50: 0.01 µM (active)
MOLT-4
  GI50: 0.01 µM (active)
SK-MEL-2
  GI50: 0.0794 µM (active)
HOP-92
  GI50: 0.547 µM (active)
SNB-19
  GI50: 0.01 µM (active)
NCI-H460
  GI50: 0.01 µM (active)
OVCAR-3
  GI50: 0.0944 µM (active)
NCI-H522
  GI50: 0.0188 µM (active)
SK-MEL-28
  GI50: 0.101 µM (active)
NCI-H226
  GI50: 0.0134 µM (active)

## COc1ccc2nc3n(c2c1)C(=O)c1ccccc1-3
K562
  GI50: > 100 µM (inactive)
KM12
  GI50: > 100 µM (inactive)
SNB-75
  GI50: > 100 µM (inactive)
SF-539
  GI50: > 100 µM (inactive)
ACHN
  GI50: > 100 µM (inactive)
SW-620
  GI50: > 100 µM (inactive)
OVCAR-5
  GI50: > 100 µM (inactive)
SK-MEL-5
  GI50: > 100 µM (inactive)
SF-268
  GI50: > 100 µM (inactive)
MOLT-4
  GI50: > 100 µM (inactive)
SK-MEL-2
  GI50: > 100 µM (inactive)
HOP-92
  GI50: > 100 µM (inactive)
SNB-19
  GI50: > 100 µM (inactive)
OVCAR-8
  GI50: > 100 µM (inactive)
NCI-H460
  GI50: > 100 µM (inactive)
OVCAR-3
  GI50: > 100 µM (inactive)
NCI-H522
  GI50: > 100 µM (inactive)
SK-MEL-28
  GI50: > 100 µM (inactive)
NCI-H226
  GI50: > 100 µM (inactive)
